Assay results published in the CheMixHub viscosity set.
± gives the uncertainty stated by the source.

Experiment: xn = mol fraction of the nth substance listed

CCCCCCCCO + C1CCCCC1
Conditions | viscosity [mPa·s]
293.15 K, 100 kPa, x2 = 0.0821 | 7.85 ± 0.63
293.15 K, 100 kPa, x2 = 0.1596 | 6.77 ± 0.54
293.15 K, 100 kPa, x2 = 0.2413 | 5.78 ± 0.46
293.15 K, 100 kPa, x2 = 0.3502 | 4.63 ± 0.37
293.15 K, 100 kPa, x2 = 0.4402 | 3.78 ± 0.3
293.15 K, 100 kPa, x2 = 0.5611 | 2.83 ± 0.23
293.15 K, 100 kPa, x2 = 0.6512 | 2.26 ± 0.18
293.15 K, 100 kPa, x2 = 0.7501 | 1.79 ± 0.14
293.15 K, 100 kPa, x2 = 0.8503 | 1.38 ± 0.11
293.15 K, 100 kPa, x2 = 0.9396 | 1.11 ± 0.09
303.15 K, 100 kPa, x2 = 0.0821 | 5.56 ± 0.45
303.15 K, 100 kPa, x2 = 0.1596 | 4.83 ± 0.39
303.15 K, 100 kPa, x2 = 0.2413 | 4.15 ± 0.33
303.15 K, 100 kPa, x2 = 0.3502 | 3.33 ± 0.27
303.15 K, 100 kPa, x2 = 0.4402 | 2.73 ± 0.22
303.15 K, 100 kPa, x2 = 0.5611 | 2.08 ± 0.17
303.15 K, 100 kPa, x2 = 0.6512 | 1.72 ± 0.14
303.15 K, 100 kPa, x2 = 0.7501 | 1.4 ± 0.11
303.15 K, 100 kPa, x2 = 0.8503 | 1.12 ± 0.09
303.15 K, 100 kPa, x2 = 0.9396 | 0.92 ± 0.07
303.15 K, 101.33 kPa, x1 = 0.1206 | 1.057 ± 0.013
303.15 K, 101.33 kPa, x1 = 0.221 | 1.301 ± 0.016
303.15 K, 101.33 kPa, x1 = 0.2975 | 1.52 ± 0.018
303.15 K, 101.33 kPa, x1 = 0.3517 | 1.697 ± 0.02
303.15 K, 101.33 kPa, x1 = 0.4355 | 2.023 ± 0.024
303.15 K, 101.33 kPa, x1 = 0.5414 | 2.518 ± 0.029
303.15 K, 101.33 kPa, x1 = 0.608 | 2.869 ± 0.033
303.15 K, 101.33 kPa, x1 = 0.755 | 3.829 ± 0.043
303.15 K, 101.33 kPa, x1 = 0.8637 | 4.746 ± 0.053
308 K, 101 kPa, x2 = 0.1494 | 4.134 ± 0.031
308 K, 101 kPa, x2 = 0.2768 | 3.348 ± 0.025
308 K, 101 kPa, x2 = 0.3962 | 2.659 ± 0.02
308 K, 101 kPa, x2 = 0.5076 | 2.09 ± 0.016
308 K, 101 kPa, x2 = 0.6146 | 1.64 ± 0.013
308 K, 101 kPa, x2 = 0.7054 | 1.36 ± 0.011
308 K, 101 kPa, x2 = 0.7911 | 1.132 ± 0.0089
308 K, 101 kPa, x2 = 0.8587 | 0.96 ± 0.0077
308 K, 101 kPa, x2 = 0.9354 | 0.828 ± 0.0067
313.15 K, 100 kPa, x2 = 0.0821 | 4.06 ± 0.33
313.15 K, 100 kPa, x2 = 0.1596 | 3.56 ± 0.29
313.15 K, 100 kPa, x2 = 0.2413 | 3.09 ± 0.25
313.15 K, 100 kPa, x2 = 0.3502 | 2.52 ± 0.2
313.15 K, 100 kPa, x2 = 0.4402 | 2.1 ± 0.17
313.15 K, 100 kPa, x2 = 0.5611 | 1.65 ± 0.13
313.15 K, 100 kPa, x2 = 0.6512 | 1.37 ± 0.11
313.15 K, 100 kPa, x2 = 0.7501 | 1.14 ± 0.09
313.15 K, 100 kPa, x2 = 0.8503 | 0.9 ± 0.07
313.15 K, 100 kPa, x2 = 0.9396 | 0.78 ± 0.06
323.15 K, 100 kPa, x2 = 0.0821 | 3.03 ± 0.24
323.15 K, 100 kPa, x2 = 0.1596 | 2.65 ± 0.21
323.15 K, 100 kPa, x2 = 0.2413 | 2.31 ± 0.19
323.15 K, 100 kPa, x2 = 0.3502 | 1.93 ± 0.16
323.15 K, 100 kPa, x2 = 0.4402 | 1.66 ± 0.13
323.15 K, 100 kPa, x2 = 0.5611 | 1.34 ± 0.11
323.15 K, 100 kPa, x2 = 0.6512 | 1.13 ± 0.09
323.15 K, 100 kPa, x2 = 0.7501 | 0.95 ± 0.08
323.15 K, 100 kPa, x2 = 0.8503 | 0.77 ± 0.06
323.15 K, 100 kPa, x2 = 0.9396 | 0.66 ± 0.05

C=Cc1ccccc1 + C1CCOC1
viscosity [mPa·s], 101.33 kPa
Conditions | x1 = 0.1011 | x1 = 0.199 | x1 = 0.3001 | x1 = 0.401 | x1 = 0.4963 | x1 = 0.6002 | x1 = 0.6993 | x1 = 0.8017 | x1 = 0.8979
298.15 K | 0.514 ± 0.007 | – | 0.595 ± 0.008 | 0.632 ± 0.009 | 0.664 ± 0.009 | 0.695 ± 0.009 | 0.721 ± 0.01 | 0.742 ± 0.01 | 0.747 ± 0.01
303.15 K | 0.49 ± 0.007 | 0.528 ± 0.008 | 0.562 ± 0.008 | 0.599 ± 0.008 | 0.625 ± 0.009 | 0.658 ± 0.009 | 0.677 ± 0.009 | 0.695 ± 0.009 | 0.699 ± 0.009
308.15 K | 0.463 ± 0.007 | 0.498 ± 0.007 | 0.532 ± 0.008 | 0.564 ± 0.008 | 0.589 ± 0.008 | 0.616 ± 0.008 | 0.637 ± 0.009 | 0.652 ± 0.009 | 0.651 ± 0.009
